According to patent US20220288052A1, “COMPOUND FOR COMBINATION TREATMENT” (priority 2019, published 2022):
pIC50, pKi: −log10 of the molar value.

Tests used:
[1] = molecular target: T1, 5-HT transporter (Mus musculus, UniProt Q60857); experiment: Ex vivo 5-HT uptake in mice
T1 construct: from tissue; host or cells: tissue of dosed animals (ex vivo)
Experimental: The in vivo receptor occupancy (RO %) of compound (I) was calculated at the MED values (DOSE) in mFST and in the mouse motility test using the formula RO % (estimated)=DOSE 100/(ED50+DOSE). The calculations were based on ED50 values in ex vivo uptake of 5-HT and NA and WIN in vivo binding.

[2] = molecular target: CYP1A2 (Homo sapiens, UniProt P05177); experiment: CYP450 inhibition, cocktail of selective substrates, 1A2; format: in vitro ADME; settings: CYP 1A2, Phenacetin to Paracetamol; read-out: IC50 of compound (I)
Experimental: Compound (I) was tested for CYP450 inhibition using a cocktail of selective substrates. […] This might be addressed later in a clinical study.

[3] = Metabolic stability in liver microsomes, dog; format: in vitro ADME
Experimental: The metabolic stability of compound (I) was tested in liver microsomes from all in house available species at 1 and 5 μM. One metabolite of 16 mass units higher than parent, was found in all incubations, except with human liver microsomes.

[4] = Purity and stability study (solution, photo, oxidation, solid state); format: physicochemical
Experimental: A purity and stability study was performed on exo-7-(8-aza-bicyclo[3.2.1]oct-3-yloxy)-chromen-2-one (compound (I)) hydrochloride anhydrate, showing that the compound is chemically and thermodynamically stable as solid and in solution, but sensitive to light when in solution.

[5] = Bioavailability study in rat
[6] = test system: mice; experiment: Mouse zero maze (mZM); format: in vivo; settings: mZero maze, p.o.
Experimental: Mice were treated (peroral administration) for 7 days with either, vehicle, duloxetine (10 mg/kg), and compound I (0.1 mg/kg, 1 mg/kg, and 3 mg/kg) (n=8 in each group).
(§1) Compound (I) was tested in three widely used behavioural screens for predicting anxiolytic effects in the clinic: the mouse marble burying test (mMB), mouse zero maze (mZM) and mouse stress-induced hyperthermia test (mSIH).

[7] = test system: anesthetized rats; experiment: Induction of erection in anesthetized rats (intracavernous pressure); format: in vivo, rat
Experimental: FIG. 25: Average spontaneous increases in (A) intracavernous pressure, (B) duration and (C) frequency of these events after infusion of the compound (I) (1 mg/kg) in young (6 week old male Wistar rats) and old (14-16 week old male rats) rats. Results are means±s.e. mean.
FIG. 26: Average rises in number of spontaneous erections measured as intracavernous pressure (ICP) after infusion of, respectively, 0.001 mg/kg, 0.01 mg/kg, 0.1 mg/kg, and 1 mg/kg compound (I) in anesthetized rats (n=4-6).
FIG. 27: Average effect of (A) vehicle (n=5), and compound (I) on mean arterial pressure (MAP) and erectile response measured as peak intracavernous pressure (PICP) over MAP (PICP/MAP) in anesthetized (B) 6 week old male Wistar rats (n=6), and (C) 14-16 week old male rats (n=6). Vehicle and compound (I) were administered after establishing the maximal (10 Hz, 1 ms, 6 V) and submaximal (submax) responses (10 Hz, 1 ms, 0.6-1.55 V) to cavernous nerve stimulation for 30 s. Submaximal stimulation was repeated 3, 13, 23, and 33 min after drug or vehicle administration. Upper traces show the mean arterial pressure (MAP), bars represent the erectile response ((PICP/MAP)·100), where PICP is the peak intracavernous pressure. […]
Compound (I) was administered intravenously to rats in dosages of 0.001, 0.01, 0.1, and 1.0 mg/kg, and the number of spontaneous erections was measured. […]

[8] = molecular target: Nicotinic α3β4 (Homo sapiens, UniProt P30926+P32297); experiment: Selectivity screen, Nicotinic α3β4; format: binding
[9] = test system: C57 mice; experiment: Mouse tail suspension test (mTST); format: in vivo; settings: i.p. 30 min
Experimental: C57 males, 25-28 g, Taconic, 16/8-06. Mice acclimatized to ground floor 5 days before testing. Mice saline injected once a day twice before test day. 22° C., N=7-8.

[10] = molecular target: DA transporter (Rattus norvegicus, UniProt P23977); experiment: ^3H-uptake rat, DA transporter; format: biochemical
Excerpt: Compound (I) has been characterized as a monoamine reuptake inhibitor, based on the profile in a series of functional assays (Table 2).

[11] = test system: NMRI mice; experiment: Mouse marble burying test (mMB); format: in vivo
Experimental: FIG. 13: Marble burying. In the marble-burying test mice exposed to a novel object (marbles) bury them in the sawdust floor covering. Compounds showing anxiolytic-like activity decrease the number of buried marbles at non-sedative doses. […] The number of marbles covered by sawdust was counted at the end of a 60-min session.
as §1

[12] = test system: brain levels of noradrenalin (NA); experiment: In vivo microdialysis, NA; design: species or system rat
Experimental: The purpose of the present study was to examine, by in vivo microdialysis technique, the effects after administration of compound (I) on brain levels of serotonin, noradrenalin and dopamine within the ventral hippocampus (Hipp), prefrontal cortex (PFC), striatum (STR) and nucleus accumbens (N.Acc) of anaesthetized rats and mice. Compound (I) represents dual acting serotonin/dopamine reuptake inhibitors and was tested in comparison to citalopram a selective serotonin uptake inhibitor. Compound (I) was tested following subcutaneous injections at dose levels between 0.25-30 mg/kg. […] Pre-treatment with the 5-HT1A autoreceptor antagonist WAY-100635 induced a further minor increase of the compound (I) (0.25 mg/kg) induced increase in the PFC level of 5-HT.

Chain of Nicotinic α3β4 (P32297 32-505): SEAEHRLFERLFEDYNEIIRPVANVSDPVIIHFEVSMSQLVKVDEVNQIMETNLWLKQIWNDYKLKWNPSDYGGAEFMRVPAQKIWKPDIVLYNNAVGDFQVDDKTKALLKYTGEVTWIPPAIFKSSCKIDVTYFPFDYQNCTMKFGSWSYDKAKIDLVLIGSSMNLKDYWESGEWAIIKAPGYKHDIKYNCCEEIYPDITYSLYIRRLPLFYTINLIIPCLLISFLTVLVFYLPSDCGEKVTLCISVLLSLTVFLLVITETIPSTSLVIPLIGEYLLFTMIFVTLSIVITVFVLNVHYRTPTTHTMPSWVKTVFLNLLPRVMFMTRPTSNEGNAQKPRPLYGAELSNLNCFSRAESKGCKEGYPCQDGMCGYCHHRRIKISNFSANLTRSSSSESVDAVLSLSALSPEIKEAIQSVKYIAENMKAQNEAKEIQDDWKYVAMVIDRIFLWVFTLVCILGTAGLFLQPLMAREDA
Chain of Nicotinic α3β4 (P30926 22-498): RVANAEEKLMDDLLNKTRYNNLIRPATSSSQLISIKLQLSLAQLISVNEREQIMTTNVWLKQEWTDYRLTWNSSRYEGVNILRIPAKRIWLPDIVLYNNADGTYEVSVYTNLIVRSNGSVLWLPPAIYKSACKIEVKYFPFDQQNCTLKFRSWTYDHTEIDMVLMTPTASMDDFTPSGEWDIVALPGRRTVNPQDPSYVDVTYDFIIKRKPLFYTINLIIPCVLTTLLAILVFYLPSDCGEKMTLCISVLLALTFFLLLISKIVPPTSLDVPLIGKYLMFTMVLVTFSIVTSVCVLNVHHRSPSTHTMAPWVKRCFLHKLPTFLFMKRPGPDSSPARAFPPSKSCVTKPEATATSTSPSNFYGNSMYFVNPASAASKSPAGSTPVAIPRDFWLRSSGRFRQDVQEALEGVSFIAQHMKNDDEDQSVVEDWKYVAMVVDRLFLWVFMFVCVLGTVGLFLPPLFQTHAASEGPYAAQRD
T1 sequence (Q60857 whole entry): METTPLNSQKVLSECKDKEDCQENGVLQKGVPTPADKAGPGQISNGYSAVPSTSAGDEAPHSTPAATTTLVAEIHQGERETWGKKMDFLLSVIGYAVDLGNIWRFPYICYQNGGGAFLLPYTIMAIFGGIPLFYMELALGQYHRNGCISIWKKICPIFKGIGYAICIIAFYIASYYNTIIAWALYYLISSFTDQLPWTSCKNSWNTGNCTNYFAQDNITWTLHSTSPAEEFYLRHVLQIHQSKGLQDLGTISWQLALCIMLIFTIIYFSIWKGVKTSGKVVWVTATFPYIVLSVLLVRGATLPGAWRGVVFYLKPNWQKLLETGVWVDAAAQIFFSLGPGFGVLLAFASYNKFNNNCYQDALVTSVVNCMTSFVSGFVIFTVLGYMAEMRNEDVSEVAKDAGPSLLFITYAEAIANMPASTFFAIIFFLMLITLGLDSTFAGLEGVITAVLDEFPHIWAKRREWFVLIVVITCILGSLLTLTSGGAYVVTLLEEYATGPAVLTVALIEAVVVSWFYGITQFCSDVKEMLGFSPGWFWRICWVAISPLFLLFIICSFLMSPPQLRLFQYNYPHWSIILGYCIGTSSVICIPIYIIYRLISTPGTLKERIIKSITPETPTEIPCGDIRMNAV
Chain of DA transporter (P23977 whole entry): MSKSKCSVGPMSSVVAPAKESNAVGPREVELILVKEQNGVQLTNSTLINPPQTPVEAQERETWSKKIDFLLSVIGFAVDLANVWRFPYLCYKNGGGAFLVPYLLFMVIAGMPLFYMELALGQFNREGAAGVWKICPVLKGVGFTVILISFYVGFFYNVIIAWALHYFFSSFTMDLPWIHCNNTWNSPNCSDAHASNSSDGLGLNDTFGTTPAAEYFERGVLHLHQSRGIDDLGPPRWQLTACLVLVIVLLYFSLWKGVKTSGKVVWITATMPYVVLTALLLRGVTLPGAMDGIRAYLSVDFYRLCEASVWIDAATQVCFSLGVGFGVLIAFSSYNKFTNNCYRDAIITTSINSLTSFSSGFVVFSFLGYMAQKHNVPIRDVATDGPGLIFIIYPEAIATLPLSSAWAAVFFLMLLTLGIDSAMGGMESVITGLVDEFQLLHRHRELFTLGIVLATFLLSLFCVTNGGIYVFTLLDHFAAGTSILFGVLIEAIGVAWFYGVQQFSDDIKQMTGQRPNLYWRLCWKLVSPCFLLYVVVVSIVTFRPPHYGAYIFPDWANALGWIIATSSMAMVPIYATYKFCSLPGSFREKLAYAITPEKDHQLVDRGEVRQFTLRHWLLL
Chain of CYP1A2 (P05177 whole entry): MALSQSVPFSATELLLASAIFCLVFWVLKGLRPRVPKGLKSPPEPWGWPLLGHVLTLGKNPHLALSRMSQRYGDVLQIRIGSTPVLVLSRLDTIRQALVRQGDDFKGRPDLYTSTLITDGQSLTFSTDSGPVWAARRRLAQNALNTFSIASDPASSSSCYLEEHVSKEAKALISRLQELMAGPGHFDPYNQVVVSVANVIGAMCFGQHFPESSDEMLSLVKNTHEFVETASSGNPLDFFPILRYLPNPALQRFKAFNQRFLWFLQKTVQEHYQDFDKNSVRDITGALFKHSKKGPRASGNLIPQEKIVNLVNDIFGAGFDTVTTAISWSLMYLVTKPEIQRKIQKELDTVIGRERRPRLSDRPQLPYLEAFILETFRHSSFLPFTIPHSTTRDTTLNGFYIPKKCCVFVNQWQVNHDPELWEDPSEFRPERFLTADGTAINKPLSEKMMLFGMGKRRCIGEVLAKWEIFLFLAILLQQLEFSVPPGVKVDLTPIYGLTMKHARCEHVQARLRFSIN

O=c1ccc2ccc(O[C@@H]3C[C@H]4CC[C@@H](C3)N4)cc2o1 [Compound (I), exo-7-(8-aza-bicyclo[3.2.1]oct-3-yloxy)-chromen-2-one]
5-HT RO % ([1]; estimated at MED in mFST (NMRI mice), DOSE 1 mg/kg): 34% | 5-HT RO % ([1]; estimated at MED in mMotility, DOSE 10 mg/kg): 84% | ED50 ([1]; mouse, po): 1.9 mg/kg | pIC50 [2]: 5.46 | Stability at 1 μM [3]: 100% | Stability at 5 μM [3]: 90% | Compound (I), % left after 1 d at 40° C. ([4]; Oxidation, 5% H2O2, 0.15 mM): 83% | Compound (I), % left after 3 h at 250 W/m^2 ([4]; Photostability at pH 7.4): 11% | % left after 26 d at 40° C. 75% rel. humidity in open container ([4]; Solid state stability): 100% | Compound (I), % left after 1 d at 40° C. ([4]; Stability at pH 1.0, 0.15 mM): 100% | Compound (I), % left after 1 d at 40° C. ([4]; Stability at pH 7.4, 0.15 mM): 100% | T½ i.v. ([5]; rat, 2.5 mg/kg i.v., 2.5 mg/kg): 36 min | Tolerability of i.v. dose ([5]; rats, 10 mg/kg i.v.): *Rats could not tolerate 10 mg/kg i.v. because of exaggerated dopaminergic effects. | MED ([6]; acute, −60 min): >10 mg/kg | MED ([6]; 7 days OD): <0.3 mg/kg | Induction of erection ([7]; 1 mg/kg): induce erection in both young and adult rats | Number of spontaneous erections versus dose ([7]; intravenously 0.001, 0.01, 0.1 and 1.0 mg/kg): increased with increasing dosage from 0.001 to 0.1 mg/kg, but decreased abruptly at a dose of 1.0 mg/kg | pKi [8]: 5.30 | Separation to transporter hDAT ([8]; Nicotinic acetylcholine Ki versus hDAT Ki 155 nM): x32 | Separation to transporter hNET ([8]; Nicotinic acetylcholine Ki versus hNET Ki 594 nM): x8.5 | inhibition at 10 µM ([8]; Nicotinic α3β4, Human, 10 μM): 57% | MED [9]: <5 mg/kg | pIC50 [10]: 6.59 | MED ([11]; Marble burying, p.o., −60 min): 0.1 mg/kg | Number of visible marbles ([11]; per oral, NMRI mice, 60-min session): dose-dependently (0.1-1.0 mg/kg) increases in the number of visible marbles | NA (AUC0-160 min) ([12]; Hippocampus, 3 mg/kg s.c., 3 mg/kg): 138±13% | NA (AUC0-160 min) ([12]; Pre-frontal cortex, 10 mg/kg s.c., 10 mg/kg): 135±4%
